Patent US20200123396A1, “PRODUCTS PRESERVED WITH 5-CHLORO-2-METHYL-4-ISOTHIAZOLIN-3-ONE” (THOR GMBH, priority 2014, published 2020)

How the values were obtained:
[1] = destruction of 2-methylisothiazolin-3-one in an aqueous emulsion paint using sodium thiosulfate; assay type: physicochemical
From the text: A drawback, however, is that according to the method described, the isothiazolinones, and especially the MIT, are not destroyed quantitatively or irreversibly, and so are still always present in the products and derivatives, and may still as before cause problems to persons reacting allergically, and/or may give rise to contact eczemas or aerogenic contact eczemas in persons having a high degree of sensitization.

[2] = test system: microorganisms introduced via the individual components of the paint; experiment: microbiological investigations of the preserved emulsion paint; assay type: cell-based; settings: 20 ppm of 5-chloro-2-methylisothiazolin-3-one (2-methylisothiazolin-3-one content <1 wt %) in water-based emulsion paint; growth detectable in individual components
From the text: Added to a preservative-free styrene-acrylate dispersion were 20 ppm of 5-chloro-2-methylisothiazolin-3-one, having a 2-methylisothiazolin-3-one content of <1 wt %. The styrene-acrylate dispersion thus preserved was then used for producing a water-based emulsion paint. The composition of the paint produced was as follows: • 25.7 wt % water • 0.2 wt % acrylate-based wetting and dispersing agent • 0.2 wt % mineral oil-based defoamer • 2.0 wt % water softener (sodium polyphosphate) • 0.2 wt % ammonia • 4.0 wt % titanium oxide (pigment) • 51.0 wt % calcium carbonate (filler) • 5.0 wt % talc (filler) • 0.4 wt %% cellulose ether • 2.0 wt % organic solvent for lowering the minimum film-forming temperature • 9.0 wt % the styrene-acrylate dispersion preserved with 20 ppm of 5-chloro-2-methylisothiazolin-3-one • 20 ppm 5-chloro-2-methylisothiazolin-3-one, having a 2-methylisothiazolin-3-one content of <1 wt %

[3] = decomposition of 5-chloro-2-methylisothiazolin-3-one in the emulsion paint by cysteine, HPLC; assay type: physicochemical; settings: after 3 hours, addition of 50 ppm of cysteine based on the emulsion paint
From the text: In order, from the emulsion paint, which contained significant quantities of 5-chloro-2-methylisothiazolin-3-one, to produce a paint unobjectionable for allergics in relation to 5-chloro-2-methylisothiazolin-3-one and 2-methylisothiazolin-3-one present therein, to produce, these isothiazolin-3-ones were decomposed by addition of 50 ppm of cysteine, based on the emulsion paint.

## Cn1sccc1=O [2-methylisothiazolin-3-one]
[1]
  destruction of 2-methylisothiazolin-3-one: destroyed neither quantitatively nor irreversibly

## Cn1sc(Cl)cc1=O [5-chloro-2-methylisothiazolin-3-one]
[2]
  microbial growth in the emulsion paint: no microbial growth
[3]
  detectability of 5-chloro-2-methylisothiazolin-3-one in the emulsion paint by HPLC: no longer detectable
